Measurements as given in patent US20120214846A1, “HEXAHYDROCYCLOPENTYL[F]INDAZOLE PYRIDYL ETHANOLS AND DERIVATIVES THEREOF AS SELECTIVE GLUCOCORTICOID RECEPTOR MODULATORS” (MERCK SHARP & DOHME CORP, priority 2009, published 2012).

How the values were obtained:
[1] = Solubility at pH 2; type: physicochemical; settings: Table 4, literature compounds
[2] = system: female Sprague-Dawley rats, oxazolone (OX) contact dermatitis; experiment: In Vivo Inflammation Assay (oxazolone contact dermatitis model); design: key to Inflammation Assay Glucose Effect / GL *: +: the glucose level increased compared to vehicle; −: the glucose level decreased compared to vehicle; settings: Table 4, literature compounds
Procedure: In Vivo Inflammation Assay
Intact adult (6 month old) female Sprague-Dawley rats are used in the oxazolone (OX) contactdermatitis model. Rats were sensitized on the ventral abdomen with OX on Day 0. On Days 7 and 9, a randomly-selected ear was challenged (same ear each time) with OX; the other was treated with vehicle. Daily treatment begun on Day 7 and continued for 7d with test compounds at different doses and 1.3 mpk 6-methlyprednisolone or 0.1 mpk DEX as positive controls. The thickness of both ears are measured on Days 11 and 14. Necropsy occurred on Day 14. The rat is first weighed, then anesthetized in a CO2 chamber until near death. Approximately 5 ml whole blood is obtained by cardiac puncture. The rat is then examined for certain signs of death and completeness. Tissues are dissected in a highly stylized fashion. Then the following endpoints were evaluated: a) inhibiting ear inflammation induced by oxazalone, b) raising serum insulin, c) reducing serum ACTH, d) reducing spleen weight, e) reducing skin thickness, f) reducing body weight, g) increasing expression of bone-related genes with potential relationship to negative glucocorticoid effects on bone; e) changes in molecular markers that correlate with skin inflammation, skin thinning, muscle atrophy and glucose metabolism in liver. All blood samples were collected between 1330-1530 hours, ˜4-5 hrs after the last compound treatment.
Primary data for this assay are left and right ear thickness. Inter-ear thickness difference (etd) is used for the estimating the level of inflammation and effectiveness of the compounds is determined by their ability to reduce the increase the thickness of the inflamed ear. Back of the rat skin thickness, spleen weight, serum insulin as well as the effects of gcs on the expression of molecular markers in skin inflammation, skin atrophy, muscle atrophy and glucose metabolism in liver are measured. Data are analyzed by anova plus fisher plsd post-hoc test to identify intergroup differences.

C[C@]12Cc3cnn(-c4ccc(F)cc4)c3C=C1CCC[C@@H]2[C@@H](O)c1ccc(F)cc1 [Ex. 32 WO 03/086294 A2, reference compound]
solubility [1]: poor | AI* ([2]; anti-inflammatory effect): + (the anti-inflammatory activity was equal to or greater than 40% of the effect generated by the control compound) | GL * ([2]; glucose effect): +
